pEC50: −log10 of the molar value.

The record followed here is US8822503B2, “2-pyridone compounds” (Taisho Pharmaceutical Co., Ltd, priority 2009, dated 2014).

For the assay, the target named is T1, human liver GK (Homo sapiens, UniProt P35557).
T1 construct: GST (glutathione S-transferase) (N); made in house; host or cells: E. coli
T1 sequence (P35557 1-466 isoform P35557-2): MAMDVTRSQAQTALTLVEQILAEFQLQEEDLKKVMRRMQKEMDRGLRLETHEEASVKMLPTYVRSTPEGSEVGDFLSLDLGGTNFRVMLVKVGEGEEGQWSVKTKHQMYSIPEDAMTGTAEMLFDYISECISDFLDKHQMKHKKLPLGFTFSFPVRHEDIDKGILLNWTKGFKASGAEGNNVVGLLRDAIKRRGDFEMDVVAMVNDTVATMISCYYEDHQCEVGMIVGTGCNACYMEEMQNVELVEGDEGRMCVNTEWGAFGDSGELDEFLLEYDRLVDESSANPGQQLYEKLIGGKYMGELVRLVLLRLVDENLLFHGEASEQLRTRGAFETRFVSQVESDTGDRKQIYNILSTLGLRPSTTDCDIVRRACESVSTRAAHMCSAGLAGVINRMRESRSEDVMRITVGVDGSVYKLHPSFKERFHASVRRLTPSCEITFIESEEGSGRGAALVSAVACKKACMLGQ
The experiment in a line: GK activation test. It counts as biochemical. As to conditions: test compound concentration needed to activate 50% of maximum activation ability; 4 mM 14C-labeled glucose, 2 mM ATP, room temperature, 20 minutes. Summed up: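 GST-tagged human liver GK from E. coli (0.24 μg/well) with 4 mM 14C-glucose, 2 mM ATP in Hepes-KOH pH 7.1, KCl, MgCl2, DTT, 1% DMSO, 20 min room temperature. Labeled glucose 6-phosphate captured on anion resin, eluted and counted. EC50 = concentration giving half of maximal activation.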
As to `O=C1OCCN1C/C=C(\c1ccc(S(=O)(=O)C2CC2)cc1)c1ccc(Cl)c(=O)[nH]1` [Example 6-21, 3-Chloro-6-[(1E)-1-[4-(cyclopropylsulfonyl)phenyl]-3-(2-oxo-1,3-oxazolidin-3-yl)prop-1-en-1-yl]pyridin-2(1H)-one], the pEC50 was 5.52 to 6.30.
The figure for `O=C1CC[C@H](/C=C(\c2ccc(OCCF)cc2)c2ccc(C3CC3)c(=O)[nH]2)N1` [Example 4-287, 3-Cyclopropyl-6-{(E)-1-[4-(2-fluoroethoxy)phenyl]-2-[(2R)-5-oxopyrrolidin-2-yl]ethenyl}pyridin-2(1H)-one] is 6.30 to 8.00.
The figure for `O=C1CC[C@H](CC(c2ccc(Cl)c(F)c2)c2ccc(C3CC3)c(=O)[nH]2)N1` (single isomer, unassigned) [Example 4-217] is 5.52 to 6.30; for `Cc1ccc(C(C[C@H]2CCC(=O)N2)c2ccc(C3CC3)c(=O)[nH]2)cc1` (single isomer, unassigned) [Example 4-294] it is 5.52 to 6.30.
To `CC(C)(C)c1ccc(/C(=C\[C@H]2CCC(=O)N2)c2ccc(N)c(=O)[nH]2)cc1` [Example 4-173, 3-Amino-6-{(E)-1-(4-tert-butylphenyl)-2-[(2R)-5-oxopyrrolidin-2-yl]ethenyl}pyridin-2(1H)-one] belongs 5.52 to 6.30.
Turning to `Cc1ccc(C(CC2CCCC2)c2ccc(S(C)(=O)=O)c(Cl)c2)[nH]c1=O` (centres unmarked) [Example 2-5, 6-{1-[3-Chloro-4-(methylsulfonyl)phenyl]-2-cyclopentylethyl}-3-methylpyridin-2(1H)-one], the pEC50 was 5.52 to 6.30.
The figure for `O=c1[nH]c(/C(=C/C2CCOC2)c2ccc(SC3CC3)cc2)ccc1C(F)(F)F` (centres unmarked) [Example 1-48, 6-{(E)-1-[4-(Cyclopropylsulfanyl)phenyl]-2-(tetrahydrofuran-3-yl)ethenyl}-3-(trifluoromethyl)pyridin-2(1H)-one] is 5.52 to 6.30; for `CCc1ccc(C(C[C@H]2CCC(=O)N2)c2ccc(Cl)c(=O)[nH]2)cc1Cl` (single isomer, unassigned) [Example 4-325] it is 5.00 to 5.52.
To `CC1(C)CCc2cc(/C(=C\[C@H]3CCC(=O)N3)c3ccc(Cl)c(=O)[nH]3)ccc2O1` [Example 4-263, 3-Chloro-6-{(E)-1-(2,2-dimethyl-3,4-dihydro-2H-chromen-6-yl)-2-[(2R)-5-oxopyrrolidin-2-yl]ethenyl}pyridin-2(1H)-one] belongs 5.52 to 6.30; to `CCOc1ccc(/C(=C\[C@H]2CCN(C(C)=O)C2)c2ccc(Cl)c(=O)[nH]2)cc1Cl` [Example 4-41, 6-[(E)-2-[(3R)-1-Acetylpyrrolidin-3-yl]-1-(3-chloro-4-ethoxyphenyl)ethenyl]-3-chloropyridin-2(1H)-one], 5.52 to 6.30; to `O=C1CC[C@H](/C=C(\c2ccc(Cl)nc2)c2ccc(C3CC3)c(=O)[nH]2)N1` [Example 4-120, 6-{(E)-1-(6-Chloropyridin-3-yl)-2-[(2R)-5-oxopyrrolidin-2-yl]ethenyl}-3-cyclopropylpyridin-2(1H)-one], 5.52 to 6.30.
The figure for `Cc1ccc(/C(=C/C2CCCC2)c2ccc(S(=O)(=O)CCCO)c(Cl)c2)[nH]c1=O` [Example 1-23, 6-[(E)-1-{3-Chloro-4-[(3-hydroxypropyl)sulfonyl]phenyl}-2-cyclopentylethenyl]-3-methylpyridin-2(1H)-one] is 6.30 to 8.00; for `NS(=O)(=O)c1ccc(/C(=C\[C@H]2CCC(=O)N2)c2ccc(C3CC3)c(=O)[nH]2)cc1` [Example 4-137, 4-{(E)-1-(5-Cyclopropyl-6-oxo-1,6-dihydropyridin-2-yl)-2-[(2R)-5-oxopyrrolidin-2-yl]ethenyl}benzenesulfonamide] it is 6.30 to 8.00; for `CSc1ccc(/C(=C\C2CCCC2)c2ccc(C3CC3)c(=O)[nH]2)cc1` [Example 1-5, 6-{(E)-2-Cyclopentyl-1-[4-(methylsulfanyl)phenyl]ethenyl}-3-cyclopropylpyridin-2(1H)-one] it is 6.30 to 8.00.
Compound `CCc1ccc(C(C[C@H]2CCC(=O)N2)c2ccc(C3CC3)c(=O)[nH]2)cc1` (single isomer, unassigned) [Example 4-302] showed a pEC50 of 6.30 to 8.00.
The figure for `O=C1CC[C@H](/C=C(\c2ccc(C(F)F)c(Cl)c2)c2ccc(C3CC3)c(=O)[nH]2)N1` [Example 4-132, 6-{(E)-1-[3-Chloro-4-(difluoromethyl)phenyl]-2-[(2R)-5-oxopyrrolidin-2-yl]ethenyl}-3-cyclopropylpyridin-2(1H)-one] is 6.30 to 8.00.
The figure for `CCCOc1ccc(/C(=C/[C@H]2CCC(=O)N2)c2ccc(C(C)(C)C)cc2)[nH]c1=O` [Example 4-167, 6-{(E)-1-(4-tert-Butylphenyl)-2-[(2R)-5-oxopyrrolidin-2-yl]ethenyl}-3-propoxypyridin-2(1H)-one] is 5.52 to 6.30; for `CSc1ccc(C(C[C@H]2CCC(=O)C2)c2ccc(C)c(=O)[nH]2)cc1` (stereo partly drawn) [Example 2-22, 3-Methyl-6-{1-[4-(methylsulfanyl)phenyl]-2-[(1R)-3-oxocyclopentyl]ethyl}pyridin-2(1H)-one] it is 5.52 to 6.30.
To `COc1ccc(C(C[C@H]2CCC(=O)N2)c2ccc(C3CC3)c(=O)[nH]2)cc1Cl` (single isomer, unassigned) [Example 4-327] belongs 5.00 to 5.52; to `O=C1CC[C@H](/C=C(\c2ccc(Cl)cc2)c2ccc(OCCCO)c(=O)[nH]2)N1` [Example 4-169, 6-{(E)-1-(4-Chlorophenyl)-2-[(2R)-5-oxopyrrolidin-2-yl]ethenyl}-3-(3-hydroxypropoxy)pyridin-2(1H)-one], 5.00 to 5.52.
For `CCOc1ccc(/C(=C\[C@H]2CCC(=O)N2)c2ccc(Cl)c(=O)[nH]2)cc1C(F)(F)F` [Example 4-51, 3-Chloro-6-{(E)-1-[4-ethoxy-3-(trifluoromethyl)phenyl]-2-[(2R)-5-oxopyrrolidin-2-yl]ethenyl}pyridin-2(1H)-one], the pEC50 is 5.52 to 6.30.
Compound `CCN(CC)CCCOc1ccc(/C(=C\[C@H]2CCC(=O)C2)c2ccc(C(F)(F)F)c(=O)[nH]2)cc1Cl` [Example 1-83, 6-{(E)-1-{3-Chloro-4-[3-(diethylamino)propoxy]phenyl}-2-[(1S)-3-oxocyclopentyl]ethenyl}-3-(trifluoromethyl)pyridin-2(1H)-one] showed a pEC50 of 5.52 to 6.30.
The figure for `CNC(=O)c1ccc(/C(=C\[C@H]2CCC(=O)N2)c2ccc(Cl)c(=O)[nH]2)cc1` [Example 4-159, 4-{(E)-1-(5-Chloro-6-oxo-1,6-dihydropyridin-2-yl)-2-[(2R)-5-oxopyrrolidin-2-yl]ethenyl}-N-methylbenzamide] is 5.00 to 5.52; for `COc1ccc(/C(=C\[C@H]2CC[C@H](O)CC2)c2ccc(C3CC3)c(=O)[nH]2)cc1Cl` [Example 1-89, 6-[(E)-1-(3-Chloro-4-methoxyphenyl)-2-(trans-4-hydroxycyclohexyl)ethenyl]-3-cyclopropylpyridin-2(1H)-one] it is 5.52 to 6.30; for `Cc1cc(C(C[C@H]2CCC(=O)N2)c2ccc(C3CC3)c(=O)[nH]2)ccc1S(=O)(=O)C1CC1` (single isomer, unassigned) [Example 4-298] it is 6.30 to 8.00.
`Cc1nc(C)c(-c2ccc(/C(=C/[C@H]3CCC(=O)N3)c3ccc(C(C)(C)C)cc3)[nH]c2=O)s1` [Example 4-181, 6-{(E)-1-(4-tert-Butylphenyl)-2-[(2R)-5-oxopyrrolidin-2-yl]ethenyl}-3-(2,4-dimethyl-1,3-thiazol-5-yl)pyridin-2(1H)-one] had a pEC50 of 5.52 to 6.30.
To `CCc1ccc(/C(=C/C2CCCC2)c2ccc(S(C)(=O)=O)c(Cl)c2)[nH]c1=O` [Example 1-21, 6-{(E)-1-[3-Chloro-4-(methylsulfonyl)phenyl]-2-cyclopentylethenyl}-3-ethylpyridin-2(1H)-one] belongs 6.30 to 8.00.
To `CC(C)(C)c1ccc(/C(=C\[C@H]2CCC(=O)N2)c2ccc(Oc3ccc(C(F)(F)F)cc3)c(=O)[nH]2)cc1` [Example 4-189, 6-{(E)-1-(4-tert-Butylphenyl)-2-[(2R)-5-oxopyrrolidin-2-yl]ethenyl}-3-[4-(trifluoromethyl)phenoxy]pyridin-2(1H)-one] belongs 5.52 to 6.30; to `CC(C)(C)c1ccc(/C(=C\CN2CCCC2=O)c2ccc(Cl)c(=O)[nH]2)cc1` [Example 6-3, 6-[(1E)-1-(4-tert-Butylphenyl)-3-(2-oxopyrrolidin-1-yl)prop-1-en-1-yl]-3-chloropyridin-2(1H)-one], 6.30 to 8.00.
The figure for `O=C1CC[C@H](/C=C(\c2ccc(C(F)(F)F)cc2)c2ccc(CCCCO)c(=O)[nH]2)N1` [Example 4-200, 3-(4-Hydroxybutyl)-6-{(E)-2-[(2R)-5-oxopyrrolidin-2-yl]-1-[4-(trifluoromethyl)phenyl]ethenyl}pyridin-2(1H)-one] is 5.52 to 6.30; for `CCN(CC)CCCCOc1ccc(/C(=C\[C@H]2CCC(=O)N2)c2ccc(Cl)c(=O)[nH]2)cc1Cl` [Example 4-63, 3-Chloro-6-{(E)-1-{3-chloro-4-[4-(diethylamino)butoxy]phenyl}-2-[(2R)-5-oxopyrrolidin-2-yl]ethenyl}pyridin-2(1H)-one] it is 5.52 to 6.30.
Compound `CC(C)(C)c1ccc(/C(=C\[C@H]2CCN(C(=O)C3CCOCC3)C2)c2ccc(Cl)c(=O)[nH]2)cc1` [Example 4-93, 6-{(E)-1-(4-tert-Butylphenyl)-2-[(3R)-1-(tetrahydro-2H-pyran-4-ylcarbonyl)pyrrolidin-3-yl]ethenyl}-3-chloropyridin-2(1H)-one] had a pEC50 of 5.00 to 5.52.

For orientation: pEC50 means the negative decadic logarithm of the EC50, by convention in mol/L. A high value points to a low EC50.
